# Target: T1, His-tagged human recombinant DDR-2 kinase domain (His-TEV-DDR2 467-855 aa) (Homo sapiens, UniProt Q16832)
# T1 construct: His-TEV-DDR2 467-855 aa
# T1 sequence (Q16832 467-855): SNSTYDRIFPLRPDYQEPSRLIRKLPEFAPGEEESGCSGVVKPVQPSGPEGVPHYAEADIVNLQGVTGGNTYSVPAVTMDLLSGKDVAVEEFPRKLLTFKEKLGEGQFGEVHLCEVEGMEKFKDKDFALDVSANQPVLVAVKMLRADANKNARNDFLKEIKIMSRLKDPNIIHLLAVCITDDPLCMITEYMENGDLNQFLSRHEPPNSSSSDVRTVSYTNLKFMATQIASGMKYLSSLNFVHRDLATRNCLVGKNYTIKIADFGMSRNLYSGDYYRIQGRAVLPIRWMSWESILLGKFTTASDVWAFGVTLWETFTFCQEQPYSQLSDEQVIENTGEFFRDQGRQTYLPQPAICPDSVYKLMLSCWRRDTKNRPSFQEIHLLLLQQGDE
# Assay: Autophosphorylation assay for biochemical activity testing of DDR2 (HTRF)
# Conditions: biochemical DDR2 autophosphorylation
# Experimental: The autophosphorylation assay was run in two steps: the enzymatic reaction in which His-tagged DDR2 with ATP as co-substrate phosphorylates itself and the detection reaction where a time resolved FRET between XL665® labelled anti-6His antibody bound to the His-tag of the enzyme and cryptate labelled anti-phospho-Tyrosine-antibody (PT66) bound the phosphorylated Tyrosine residue of DDR2 was analysed. The autophosphorylation activity was detectable directly via the increase in HTRF signal.
# The autophosphorylation assay was performed as 1536 well or 384 well HTRF® (Cisbio, Codolet, France) assay format in Greiner low volume medium binding 384-well microtiter plates and was used for high throughput screen. […] The ratio of the emission signals was determined. The full value used was the inhibitor-free reaction.
row,SMILES,IC50
1,"CNC(=O)c1cc(Oc2ccc(CNC(=O)Nc3cc(C(F)(F)F)c(Cl)cc3OCC(=O)O)cc2)ccn1 [compound 98, (5-Chloro-2-{3-[4-(2-methylcarbamoyl-pyridin-4-yloxy)-benzyl]-ureido}-4-trifluoromethyl-phenoxy)-acetic acid]",3300 nM
2,"CNC(=O)c1cc(Oc2ccc(CNC(=O)Nc3cc(C(F)(F)F)ccc3OC)cc2C)ccn1 [compound 102, 4-{4-[3-(2-Methoxy-5-trifluoromethyl-phenyl)-ureidomethyl]-2-methyl-phenoxy}-pyridine-2-carboxylic acid methylamide]",50 nM
3,"CNC(=O)c1cc(Oc2ccc(CNC(=O)Nc3cc(Cl)ccc3OC)c(C)c2)ccn1 [compound 104, 4-{4-[3-(5-Chloro-2-methoxy-phenyl)-ureidomethyl]-3-methyl-phenoxy}-pyridine-2-carboxylic acid methylamide]",270 nM
4,"CNC(=O)c1cc(Oc2ccc(CNC(=O)Nc3cc(C(F)(F)F)ccc3OC)c(C)c2)ccn1 [compound 105, 4-{4-[3-(2-Methoxy-5-trifluoromethyl-phenyl)-ureidomethyl]-3-methyl-phenoxy}-pyridine-2-carboxylic acid methylamide]",180 nM
5,"CNC(=O)c1cc(Oc2ccc(CNC(=O)Nc3cc(C(F)(F)F)ccc3OCCN3CCCC3)cc2)ccn1 [compound 106, 4-(4-{3-[2-(2-Pyrrolidin-1-yl-ethoxy)-5-trifluoromethyl-phenyl]-ureidomethyl}-phenoxy)-pyridine-2-carboxylic acid methylamide]",140 nM
6,"CNC(=O)c1cc(Oc2ccc(CNC(=O)Nc3cc(C(F)(F)F)c(Cl)cc3OCC(=O)OC(C)(C)C)cc2)ccn1 [compound 107, (5-Chloro-2-{3-[4-(2-methylcarbamoyl-pyridin-4-yloxy)-benzyl]-ureido}-4-trifluoromethyl-phenoxy)-acetic acid tert-butyl ester]",22 nM
7,"CNC(=O)c1cc(Oc2ccc(CNC(=O)Nc3cc(C(F)(F)F)ccc3OCCN3CCOCC3)cc2)ccn1 [compound 109, 4-(4-{3-[2-(2-Morpholin-4-yl-ethoxy)-5-trifluoromethyl-phenyl]-ureidomethyl}-phenoxy)-pyridine-2-carboxylic acid methylamide]",72 nM
8,"CNC(=O)c1cc(Oc2ccc(CNC(=O)Nc3cc(C(F)(F)F)ccc3OC3CCNCC3)cc2)ccn1 [compound 115, 4-(4-{3-[2-(Piperidin-4-yloxy)-5-trifluoromethyl-phenyl]-ureidomethyl}-phenoxy)-pyridine-2-carboxylic acid methylamide]",20 nM
9,"CCN(CC)CCOc1cc(Cl)c(C)cc1NC(=O)NCc1ccc(Oc2ccnc(C(=O)NC)c2)cc1 [compound 117, 4-(4-{3-[4-Chloro-2-(2-diethylamino-ethoxy)-5-methyl-phenyl]-ureidomethyl}-phenoxy)-pyridine-2-carboxylic acid methylamide]",425 nM
10,"COc1cc(Cl)c(C)cc1NC(=O)NCc1ccc(Oc2ccnc(C(=O)NCCN)c2)cc1 [compound 123, 4-{4-[3-(4-Chloro-2-methoxy-5-methyl-phenyl)-ureidomethyl]-phenoxy}-pyridine-2-carboxylic acid (2-amino-ethyl)-amide]",3100 nM
11,"CCN(CC)CCOc1cc(Cl)c(C(F)(F)F)cc1NC(=O)NCc1ccc(Oc2ccnc(C(=O)NC)c2)cc1 [compound 132, 4-(4-{3-[4-Chloro-2-(2-diethylamino-ethoxy)-5-trifluoromethyl-phenyl]-ureidomethyl}-phenoxy)-pyridine-2-carboxylic acid methylamide]",125 nM

# The remaining compounds from weak to strong by IC50, led by results:
row,IC50,SMILES
1,410 nM,"CNC(=O)c1cc(Oc2ccc(CNC(=O)Nc3cc(C)c(Cl)cc3OCCN3CCCC3)cc2)ccn1 [compound 116, 4-(4-{3-[4-Chloro-5-methyl-2-(2-pyrrolidin-1-yl-ethoxy)-phenyl]-ureidomethyl}-phenoxy)-pyridine-2-carboxylic acid methylamide]"
2,290 nM,"CNC(=O)c1cc(Oc2ccc(CNC(=O)Nc3cnc4ccccc4c3)cc2)ccn1 [compound 97, 4-{4-[(3-Quinolin-3-yl-ureido)-methyl]-phenoxy}-pyridine-2-carboxylic acid methylamide]"
3,250 nM,"CNC(=O)c1cc(Oc2ccc(CNC(=O)Nc3cc(C(F)(F)F)c(Cl)cc3OCCN3CCCC3)cc2)ccn1 [compound 129, 4-(4-{3-[4-Chloro-2-(2-pyrrolidin-1-yl-ethoxy)-5-trifluoromethyl-phenyl]-ureidomethyl}-phenoxy)-pyridine-2-carboxylic acid methylamide]"
4,210 nM,"CNC(=O)c1cc(Oc2ccc(CNC(=O)Nc3cc(C)c(Cl)cc3OC)cc2C)ccn1 [compound 119, 4-{4-[3-(4-Chloro-2-methoxy-5-methyl-phenyl)-ureidomethyl]-2-methyl-phenoxy}-pyridine-2-carboxylic acid methylamide]"
5,190 nM,"CNC(=O)c1cc(Oc2ccc(CNC(=O)Nc3cc4ccccc4nc3OC)cc2)ccn1 [compound 101, 4-{4-[3-(2-Methoxy-quinolin-3-yl)-ureidomethyl]-phenoxy}-pyridine-2-carboxylic acid methylamide]"
6,176 nM,"CNC(=O)c1cc(Oc2ccc(CNC(=O)Nc3cc(C)c(Cl)cc3OCCN3CCNCC3)cc2)ccn1 [compound 120, 4-(4-{3-[4-Chloro-5-methyl-2-(2-piperazin-1-yl-ethoxy)-phenyl]-ureidomethyl}-phenoxy)-pyridine-2-carboxylic acid methylamide]"
7,150 nM,"COc1cc(Cl)c(C)cc1NC(=O)NCc1ccc(Oc2ccnc(C(=O)NCCCCCCN)c2)cc1 [compound 126, 4-{4-[3-(4-Chloro-2-methoxy-5-methyl-phenyl)-ureidomethyl]-phenoxy}-pyridine-2-carboxylic acid (6-amino-hexyl)-amide]"
8,96 nM,"CNC(=O)c1cc(Oc2ccc(CNC(=O)Nc3cc(C(F)(F)F)c(Cl)cc3OCCN3CCOCC3)cc2)ccn1 [compound 131, 4-(4-{3-[4-Chloro-2-(2-morpholin-4-yl-ethoxy)-5-trifluoromethyl-phenyl]-ureidomethyl}-phenoxy)-pyridine-2-carboxylic acid methylamide]"
9,57 nM,"CNC(=O)c1cc(Oc2ccc(CNC(=O)Nc3cc(C(F)(F)F)c(Cl)cc3OCC(=O)OC)cc2)ccn1 [compound 113, (5-Chloro-2-{3-[4-(2-methylcarbamoyl-pyridin-4-yloxy)-benzyl]-ureido}-4-trifluoromethyl-phenoxy)-acetic acid methyl ester]"
10,34 nM,"CNC(=O)c1cc(Oc2ccc(CNC(=O)Nc3cc(C(F)(F)F)ccc3OCCN)cc2)ccn1 [compound 121, 4-(4-{3-[2-(2-Amino-ethoxy)-5-trifluoromethyl-phenyl]-ureidomethyl}-phenoxy)-pyridine-2-carboxylic acid methylamide]"
11,30 nM,"CCN(CC)CCOc1ccc(C(F)(F)F)cc1NC(=O)NCc1ccc(Oc2ccnc(C(=O)NC)c2)cc1 [compound 108, 4-(4-{3-[2-(2-Diethylamino-ethoxy)-5-trifluoromethyl-phenyl]-ureidomethyl}-phenoxy)-pyridine-2-carboxylic acid methylamide]"
12,24 nM,"CNC(=O)c1cc(Oc2ccc(CNC(=O)Nc3cc(C(F)(F)F)c(Cl)cc3OCC(=O)OC(C)C)cc2)ccn1 [compound 114, (5-Chloro-2-{3-[4-(2-methylcarbamoyl-pyridin-4-yloxy)-benzyl]-ureido}-4-trifluoromethyl-phenoxy)-acetic acid isopropyl ester]"

# From patent US20150225369A1, “DDR2 INHIBITORS FOR THE TREATMENT OF OSTEOARTHRITIS” (Merck Patent GmbH, priority 2012, published 2015)
